This series has as its system CCRIS mutagenicity, Ames/micronucleus/aberration tests. As to the kind of experiment: CCRIS mutagenicity studies.
The mark [1] stands for this setting: Test System: AMES SALMONELLA TYPHIMURIUM, Strain/Indicator: TA98, Metabolic Activation: NONE, Method: PREINCUBATION
Where [2] appears, read: Test System: AMES SALMONELLA TYPHIMURIUM, Strain/Indicator: TA100, Metabolic Activation: NONE, Method: PREINCUBATION
Setting [3] is: Test System: AMES SALMONELLA TYPHIMURIUM, Strain/Indicator: TA1535, Metabolic Activation: NONE, Method: PREINCUBATION

Calls of active or inactive are those of the source. How the calls were made is not given here.

Consider `CCCCCCCCCCCC(=O)[O][Sn]([CH2]CCC)([CH2]CCC)[O]C(=O)CCCCCCCCCCC`, for which the mutagenic call runs as follows: (Test System: AMES SALMONELLA TYPHIMURIUM, Strain/Indicator: TA97, Metabolic Activation: HAMSTER, LIVER, S-9, AROCLOR 1254 (10%), Method: PREINCUBATION) “inactive; negative”; (Test System: AMES SALMONELLA TYPHIMURIUM, Strain/Indicator: TA97, Metabolic Activation: HAMSTER, LIVER, S-9, AROCLOR 1254 (30%), Method: PREINCUBATION) “inactive; negative”; (Test System: AMES SALMONELLA TYPHIMURIUM, Strain/Indicator: TA97, Metabolic Activation: NONE, Method: PREINCUBATION) “inactive; negative”; (Test System: AMES SALMONELLA TYPHIMURIUM, Strain/Indicator: TA97, Metabolic Activation: RAT, LIVER, S-9, AROCLOR 1254 (10%), Method: PREINCUBATION) “inactive; negative”; (Test System: AMES SALMONELLA TYPHIMURIUM, Strain/Indicator: TA97, Metabolic Activation: RAT, LIVER, S-9, AROCLOR 1254 (30%), Method: PREINCUBATION) “inactive; negative”; (Test System: AMES SALMONELLA TYPHIMURIUM, Strain/Indicator: TA98, Metabolic Activation: HAMSTER, LIVER, S-9, AROCLOR 1254 (10%), Method: PREINCUBATION) “inactive; negative”. In addition, the mutagenic call by setting is: (Test System: AMES SALMONELLA TYPHIMURIUM, Strain/Indicator: TA98, Metabolic Activation: HAMSTER, LIVER, S-9, AROCLOR 1254 (30%), Method: PREINCUBATION) “inactive; negative”; under setting [1], “inactive; negative”; (Test System: AMES SALMONELLA TYPHIMURIUM, Strain/Indicator: TA98, Metabolic Activation: RAT, LIVER, S-9, AROCLOR 1254 (10%), Method: PREINCUBATION) “inactive; negative”; (Test System: AMES SALMONELLA TYPHIMURIUM, Strain/Indicator: TA98, Metabolic Activation: RAT, LIVER, S-9, AROCLOR 1254 (30%), Method: PREINCUBATION) “inactive; negative”; (Test System: AMES SALMONELLA TYPHIMURIUM, Strain/Indicator: TA100, Metabolic Activation: HAMSTER, LIVER, S-9, AROCLOR 1254 (10%), Method: PREINCUBATION) “inactive; negative”; (Test System: AMES SALMONELLA TYPHIMURIUM, Strain/Indicator: TA100, Metabolic Activation: HAMSTER, LIVER, S-9, AROCLOR 1254 (30%), Method: PREINCUBATION) “inactive; negative”. Also, the mutagenic call runs as follows: under setting [2], “inactive; negative”; (Test System: AMES SALMONELLA TYPHIMURIUM, Strain/Indicator: TA100, Metabolic Activation: RAT, LIVER, S-9, AROCLOR 1254 (10%), Method: PREINCUBATION) “inactive; negative”; (Test System: AMES SALMONELLA TYPHIMURIUM, Strain/Indicator: TA100, Metabolic Activation: RAT, LIVER, S-9, AROCLOR 1254 (30%), Method: PREINCUBATION) “inactive; negative”; (Test System: AMES SALMONELLA TYPHIMURIUM, Strain/Indicator: TA1535, Metabolic Activation: HAMSTER, LIVER, S-9, AROCLOR 1254 (10%), Method: PREINCUBATION) “inactive; negative”; (Test System: AMES SALMONELLA TYPHIMURIUM, Strain/Indicator: TA1535, Metabolic Activation: HAMSTER, LIVER, S-9, AROCLOR 1254 (30%), Method: PREINCUBATION) “inactive; negative”; under setting [3], “inactive; negative”. The mutagenic call was “inactive; negative” (Test System: AMES SALMONELLA TYPHIMURIUM, Strain/Indicator: TA1535, Metabolic Activation: RAT, LIVER, S-9, AROCLOR 1254 (10%), Method: PREINCUBATION) and “inactive; negative” (Test System: AMES SALMONELLA TYPHIMURIUM, Strain/Indicator: TA1535, Metabolic Activation: RAT, LIVER, S-9, AROCLOR 1254 (30%), Method: PREINCUBATION).
Regarding `CC1=C[C@]2(O[C@@H]3O[C@H](CO)[C@@H](O)[C@H](O)[C@H]3O)C[C@@H](C)C(=O)[C@@H]2[C@](C)(O)C12CC2`, the mutagenic call runs as follows: under setting [1], “active; positive”; (Test System: AMES SALMONELLA TYPHIMURIUM, Strain/Indicator: TA98, Metabolic Activation: NONE, Method: PREINCUBATION (PH 7.4)) “inactive; negative”; (Test System: AMES SALMONELLA TYPHIMURIUM, Strain/Indicator: TA98, Metabolic Activation: NONE, Method: PREINCUBATION (PH 8.5)) “active; positive”; (Test System: AMES SALMONELLA TYPHIMURIUM, Strain/Indicator: TA98, Metabolic Activation: S-9, Method: PREINCUBATION (PH 7.4)) “inactive; negative”; under setting [2], “active; positive”; (Test System: AMES SALMONELLA TYPHIMURIUM, Strain/Indicator: TA100, Metabolic Activation: NONE, Method: PREINCUBATION (PH 7.4)) “inactive; negative”. Moreover, the mutagenic call (Test System: AMES SALMONELLA TYPHIMURIUM, Strain/Indicator: TA100, Metabolic Activation: NONE, Method: PREINCUBATION (PH 8.5)) was “active; positive”; the mutagenic call (Test System: AMES SALMONELLA TYPHIMURIUM, Strain/Indicator: TA100, Metabolic Activation: S-9, Method: PREINCUBATION (PH 7.4)) is “inactive; negative”; the mutagenic call (Test System: UDS RAT HEPATOCYTES, Strain/Indicator: THY INCORP, Metabolic Activation: NONE, Method: AUTORADIOGRAPHY) is “active; positive”.
Take `CCCCN(N=O)C(=O)NC`: the mutagenic call (Test System: E. COLI, Strain/Indicator: WP2 UVRA, Metabolic Activation: NONE, Method: PREINCUBATION) was “active; positive” and the mutagenic call (Test System: E. COLI, Strain/Indicator: WP2 UVRA, Metabolic Activation: RAT, LIVER, S-9, PHENOBARBITAL AND 5,6-BENZOFLAVONE, Method: PREINCUBATION) is “active; positive”.
As for `CC(C)CCC[C@@H](C)[C@H]1CC[C@H]2[C@@H]3CC=C4C[C@@H](O)CC[C@]4(C)[C@H]3CC[C@]12C`, the mutagenic call (Test System: CHINESE HAMSTER V-79, Strain/Indicator: V-79/OUABAIN, Metabolic Activation: NONE) was “inactive; negative”.
On to `COC1=C(OC)C(=O)C(C/C=C(\C)CC/C=C(\C)CC/C=C(\C)CC/C=C(\C)CC/C=C(\C)CC/C=C(\C)CC/C=C(\C)CC/C=C(\C)CC/C=C(\C)CCC=C(C)C)=C(C)C1=O`, for which the mutagenic call reads like this: under setting [1], “inactive; negative”; (Test System: AMES SALMONELLA TYPHIMURIUM, Strain/Indicator: TA98, Metabolic Activation: RAT, LIVER, S-9, PHENOBARBITAL AND 5,6-BENZOFLAVONE, Method: PREINCUBATION) “inactive; negative”; under setting [2], “inactive; negative”; (Test System: AMES SALMONELLA TYPHIMURIUM, Strain/Indicator: TA100, Metabolic Activation: RAT, LIVER, S-9, PHENOBARBITAL AND 5,6-BENZOFLAVONE, Method: PREINCUBATION) “inactive; negative”; under setting [3], “inactive; negative”; (Test System: AMES SALMONELLA TYPHIMURIUM, Strain/Indicator: TA1535, Metabolic Activation: RAT, LIVER, S-9, PHENOBARBITAL AND 5,6-BENZOFLAVONE, Method: PREINCUBATION) “inactive; negative”. Also, the mutagenic call is “inactive; negative” (Test System: AMES SALMONELLA TYPHIMURIUM, Strain/Indicator: TA1537, Metabolic Activation: NONE, Method: PREINCUBATION); “inactive; negative” (Test System: AMES SALMONELLA TYPHIMURIUM, Strain/Indicator: TA1537, Metabolic Activation: RAT, LIVER, S-9, PHENOBARBITAL AND 5,6-BENZOFLAVONE, Method: PREINCUBATION); “inactive; negative” (Test System: E. COLI, Strain/Indicator: WP2UVRA, Metabolic Activation: NONE, Method: PREINCUBATION); “inactive; negative” (Test System: E. COLI, Strain/Indicator: WP2UVRA, Metabolic Activation: RAT, LIVER, S-9, PHENOBARBITAL AND 5,6-BENZOFLAVONE, Method: PREINCUBATION).
With `CCCCC/C=C/C(=O)CCc1ccc(O)c(OC)c1`, the mutagenic call was “inactive; negative” (Test System: AMES SALMONELLA TYPHIMURIUM, Strain/Indicator: TA98, Metabolic Activation: NONE, Method: STANDARD PLATE); “inactive; negative” (Test System: AMES SALMONELLA TYPHIMURIUM, Strain/Indicator: TA98, Metabolic Activation: RAT, LIVER, S-9, AROCLOR 1254, Method: STANDARD PLATE); “inactive; negative” (Test System: AMES SALMONELLA TYPHIMURIUM, Strain/Indicator: TA100, Metabolic Activation: NONE, Method: STANDARD PLATE); “active; positive” (Test System: AMES SALMONELLA TYPHIMURIUM, Strain/Indicator: TA100, Metabolic Activation: RAT, LIVER, S-9, AROCLOR 1254, Method: STANDARD PLATE); “inactive; negative” (Test System: AMES SALMONELLA TYPHIMURIUM, Strain/Indicator: TA1535, Metabolic Activation: NONE, Method: STANDARD PLATE); “active; positive” (Test System: AMES SALMONELLA TYPHIMURIUM, Strain/Indicator: TA1535, Metabolic Activation: RAT, LIVER, S-9, AROCLOR 1254, Method: STANDARD PLATE). Also, the mutagenic call runs as follows: (Test System: AMES SALMONELLA TYPHIMURIUM, Strain/Indicator: TA1538, Metabolic Activation: NONE, Method: STANDARD PLATE) “inactive; negative”; (Test System: AMES SALMONELLA TYPHIMURIUM, Strain/Indicator: TA1538, Metabolic Activation: RAT, LIVER, S-9, AROCLOR 1254, Method: STANDARD PLATE) “inactive; negative”.

The values are drawn from PubChem BioAssay AID1259407 (Chemical Carcinogenesis Research Information System (CCRIS), 2018).
